According to US10188689B2, “Method and composition for treating breast cancer” (STELLENBOSCH UNIVERSITY, priority 2014, dated 2019):

Tested on: Phospho-ser15-p53
Test: Western blot of tumours from treated mice: phospho-ser15-p53
Format: in vivo, C57BL6 mice
Conditions: tumours of Dox treated mice, seven days
Protocol: Following the weighing and grouping of mice, treatment with D. viscosa extract commenced. Tumour size was measured every two days by taking measurements in two perpendicular dimensions using digital calipers. The D. viscosa extract was administered through raspberry flavoured jelly blocks. Mice were conditioned to the taste of the jelly four days before treatment began. Human dosage (5.24 mg/kg/day) and the Km factor were used for dose translation based on body surface area to calculate animal dosage to be administered (Reagan-Shaw et al., 2007). On the day of treatment, mice were put in separate cages and given a 1 cm×1 cm block of jelly injected with 146 μL extract per jelly block (0.065 mg/g average bodyweight) at dusk every day, for a period of seven days. The day after the last treatment, mice were sacrificed by decapitation, where after tumours were harvested and frozen at −80° C. until needed.
Protein extraction from cells took place after the 24 hour treatment period. The medium was aspirated and the flasks were placed on ice. […] Cell lysates were then centrifuged at room temperature for 10 minutes at 8000 rpm, where after the protein content of each lysate was determined using the Bradford method (Bradford, 1976). […] After extraction protein content was determined with the Bradford method (Bradford, 1976) and stored at −80° C. until analysis, […]

## COc1cccc2c1C(=O)c1c(O)c3c(c(O)c1C2=O)C[C@@](O)(C(=O)CO)C[C@@H]3O[C@H]1C[C@H](N)[C@H](O)[C@H](C)O1 [Dox, doxorubicin]
  level of p53 in tumours (ratio of phospho-ser15-p53 to total p53): 5.3±1.016 fold increase relative to cont
